According to article doi:10.1101/2020.10.06.328336v1 (biorxiv, 2020):

Columns and labels:
[1] = target: T1, SARS-CoV-2 RdRp complex (nsp12-nsp7-nsp8) (Severe acute respiratory syndrome coronavirus 2, UniProt P0DTD1); experiment: biochemical
[2] = target: T1, SARS-CoV-2 RdRp complex (nsp12-nsp7-nsp8); experiment: […]; type: biochemical

O=C(Nc1cc(C(=O)Nc2ccc(S(=O)(=O)O)cc2)cc(C(=O)Nc2ccc(S(=O)(=O)O)cc2)c1)Nc1cc(C(=O)Nc2ccc(S(=O)(=O)O)cc2)cc(C(=O)Nc2ccc(S(=O)(=O)O)cc2)c1 [NF110]
IC50 [1]: 580 ± 40 nM

O=C(Nc1cccc(C(=O)Nc2cc(C(=O)Nc3ccc(S(=O)(=O)O)c4cc(S(=O)(=O)O)cc(S(=O)(=O)O)c34)ccc2F)c1)Nc1cccc(C(=O)Nc2cc(C(=O)Nc3ccc(S(=O)(=O)O)c4cc(S(=O)(=O)O)cc(S(=O)(=O)O)c34)ccc2F)c1 [NF157]
IC50 [1]: 50 nM

O=C(Nc1ccc(C(=O)Nc2ccc(C(=O)Nc3ccc(S(=O)(=O)O)c4cc(S(=O)(=O)O)cc(S(=O)(=O)O)c34)cc2)cc1)Nc1ccc(C(=O)Nc2ccc(C(=O)Nc3ccc(S(=O)(=O)O)c4cc(S(=O)(=O)O)cc(S(=O)(=O)O)c34)cc2)cc1 [NF279]
IC50 [1]: 50 nM

O=C(Nc1cc(C(=O)Nc2ccc(S(=O)(=O)O)cc2S(=O)(=O)O)cc(C(=O)Nc2ccc(S(=O)(=O)O)cc2S(=O)(=O)O)c1)Nc1cc(C(=O)Nc2ccc(S(=O)(=O)O)cc2S(=O)(=O)O)cc(C(=O)Nc2ccc(S(=O)(=O)O)cc2S(=O)(=O)O)c1 [NF449]
IC50 [1]: 50 nM

Cc1ccc(C(=O)Nc2ccc(S(=O)(=O)O)c3cc(S(=O)(=O)O)cc(S(=O)(=O)O)c23)cc1NC(=O)c1cccc(NC(=O)Nc2cccc(C(=O)Nc3cc(C(=O)Nc4ccc(S(=O)(=O)O)c5cc(S(=O)(=O)O)cc(S(=O)(=O)O)c45)ccc3C)c2)c1 [suramin]
IC50 [2]: 260 nM
